According to PubChem BioAssay (NCI):
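Tested at 5 concentrations; 48 h exposure; 96-well plates; endpoints linearly interpolated, else capped at highest concentration. GI50 is the concentration that inhibits growth by half. TGI: total growth inhibition.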

Tests used:
Assay in all cases: NCI anticancer screen, dose series, 48 h
[1] = tested on: 786-0 renal
[2] = tested on: COLO 205 colon
[3] = tested on: IGROV1 ovarian
[4] = tested on: KM12 colon
[5] = tested on: LOX IMVI melanoma
[6] = tested on: M14 melanoma
[7] = tested on: OVCAR-3 ovarian
[8] = tested on: OVCAR-4 ovarian
[9] = tested on: PC-3 prostate
[10] = tested on: UO-31 renal

| SMILES | GI50 [1] [µM] | TGI [1] [µM] | GI50 [2] [µM] | TGI [2] [µM] | GI50 [3] [µM] | TGI [3] [µM] | GI50 [4] [µM] | TGI [4] [µM] | GI50 [5] [µM] | TGI [5] [µM] | GI50 [6] [µM] | TGI [6] [µM] | GI50 [7] [µM] | TGI [7] [µM] | GI50 [8] [µM] | TGI [8] [µM] | GI50 [9] [µM] | TGI [9] [µM] | GI50 [10] [µM] | TGI [10] [µM] |
| --- | --- | --- | --- | --- | --- | --- | --- | --- | --- | --- | --- | --- | --- | --- | --- | --- | --- | --- | --- | --- |
| COC(=O)c1cc2c([nH]c3ccccc32)c(-c2nc3cc(N(S(=O)(=O)c4ccc(C)cc4)S(=O)(=O)c4ccc(C)cc4)c(OC)cc3cc2CO)n1 | 32.1 | 87.8 | > 100 | > 100 | > 100 | > 100 | > 100 | > 100 | > 100 | > 100 | > 100 | > 100 | > 100 | > 100 | > 100 | > 100 | > 100 | > 100 | > 100 | > 100 |
| Cc1ccc(S(=O)(=O)NC(CCCCN)C(=O)CCl)cc1 (centres undefined) | 73.2 | > 100 | 41.1 | > 100 | > 100 | > 100 | 55.9 | > 100 | 45.4 | > 100 | > 100 | > 100 | 33.2 | > 100 | > 100 | > 100 | 52.6 | > 100 | > 100 | > 100 |
| CCN(CC)CCCC(C)NC(=S)N/N=C(\C)c1ccccn1 (centres undefined) | 2.83 | 12 | 3.25 | > 100 | 5.64 | > 100 | 4.02 | > 100 | 2.63 | > 100 | 2.8 | 17.8 | 3.87 | > 100 | 3 | > 100 | 5.02 | > 100 | 2.51 | > 100 |
| C/C=C\C(C)=C/C(C)C(=O)CC(O)CC1CC(=O)NC(=O)C1 (centres undefined) |  | > 100 |  | > 100 |  | > 100 |  | > 100 |  | > 100 |  | > 100 |  | > 100 |  | > 100 |  | > 100 |  | > 100 |
| Cc1nc2cc(NC(=O)CN3CCN(CCN4C(=O)c5cccc6cccc(c56)C4=O)CC3)ccc2s1 | 5.91 | 19.1 | 4.46 | 89.6 | 6.05 | > 100 | 4.95 | 18.4 | 4.15 | 15.6 | 8.76 | 23 | 7.91 | 20.7 | 5.33 | > 100 | 4.5 | > 100 | 3.07 | > 100 |
| COc1ccc(/C(C)=C(\c2ccc(Cl)cc2)c2ccc(OCCN3CCCCC3)cc2)cc1F | 2.69 | 5.3 | 1.75 | 5.25 | 3.16 | 9.37 | 1.97 | 6.23 | 2.42 | 4.64 | 2.61 | 6.17 | 3.25 | 6.65 | 2.99 | 8.99 | 2.67 | 7.47 | 2.05 | 4.21 |
| COc1ccc(/C=C2\CN(Cc3cn(CCCNc4ccnc5cc(Cl)ccc45)nn3)C/C(=C\c3ccc(OC)cc3)C2=O)cc1 | 14.3 | 30.3 | 12.2 | 26.8 | 4.86 | 17.6 | 1.66 | 3.39 | 3.98 | 18.5 | 4.15 | 16.2 | 4.91 | 18.1 | 7.37 | 28.1 | 2.9 | 17 | 3.85 | 21.4 |
| O=C1C2=C(Nc3cc([N+](=O)[O-])ccc3N2)OC1c1c[nH]c2ccc(COc3ccccc3)cc12 (centres undefined) |  | > 100 |  | 55.8 |  | > 100 |  | > 100 |  | > 100 |  | > 100 |  | > 100 |  | > 100 |  | > 100 |  | > 100 |
| COc1cc(C2C3=C(COC3=O)N(CCO)c3cc4c(cc32)CCC4)cc(OC)c1OC (centres undefined) | 0.119 |  | 0.0651 | 0.148 | 0.0732 | 0.232 | 0.0707 | 0.29 | 0.166 | > 32.5 | 0.0672 | 0.199 | 0.0595 | 0.129 | 0.14 | > 20.9 | 0.112 | > 32.5 | 0.228 | > 17 |
| Cn1c(N)cc(=O)nc1N |  | > 100 |  | > 100 |  | > 100 |  | > 100 |  | > 100 |  | > 100 |  | > 100 |  | > 100 |  | > 100 |  | > 100 |
| Nc1nc(N)c2nn(-c3ccc(C(=O)O)cc3)nc2n1 |  | > 100 |  | > 100 |  | > 100 |  | > 100 |  | > 100 |  | > 100 |  | > 100 |  | > 100 |  | > 100 |  | > 100 |
| COc1ccc(C(=O)CC(Cl)=C(Cl)Cl)cc1 | 21.7 | 44.7 | 25.6 | 61.5 | 28.3 | 75.9 | 71.2 | > 100 | 19.2 | 43.4 | 27.5 | 66.1 | 20.6 | 41.2 | 19.8 | 56.1 | 26.7 | > 100 | 25.8 | 54.7 |
| O=C(CN1C(=O)c2ccccc2C1=O)NC1(C(=O)O)CCCC1 |  | > 100 |  | > 100 |  | > 100 |  | > 100 |  | > 100 |  | > 100 |  | > 100 |  | > 100 |  | > 100 |  | > 100 |
| O=C(NC(c1ccccc1)C(O)C(=O)OCc1ccc2c(c1)C(=O)c1ccccc1C2=O)c1ccccc1 (centres undefined) |  | 6.4 |  | > 100 |  | 48.5 |  | > 97.4 |  | > 83.8 |  | > 80.5 |  | 34.6 |  | 4.99 |  | 42.1 |  | 10.1 |
| CC1SC(c2cccc(Oc3ccccc3)c2)N(CCc2cccs2)C1=O (centres undefined) | 1.2 | 2.83 | 1.5 | 3.05 | 1.07 | 3.33 | 0.626 | 2.49 | 0.883 | 2.11 | 1.02 | 2.34 | 1.08 | 2.3 | 0.425 | 1.88 | 0.595 | 3.37 | 0.469 | 1.9 |
| COc1cc2c(c(OC)c1OC)-c1c(c3ccc([N+](=O)[O-])cc3c(=O)n1CCCN=[N+]=[N-])C2=O | 15.4 | 43.8 | > 100 | > 100 | 0.949 | 33.3 | > 100 | > 100 | 28.5 | > 100 | 34.4 | > 100 | 45.2 | > 100 | 19.4 | 60.9 | > 100 | > 100 | 4.92 | 72.5 |
| Cc1nn(-c2ccccc2)c2ncc3c(c12)C(=O)N(Cc1ccccc1)C3=O | 1.94 | 5.12 | 4.99 | > 100 | 5.37 | 64.7 | > 100 | > 100 | 4.58 | > 100 | 4.98 | > 100 | 3.31 | 9.84 | 2.18 | 5.48 | 10.1 | > 100 | 2.65 | 8.17 |
| CCCCCCn1c(=N)n(CC(O)COc2cccc(C)c2)c2ccccc21 (centres undefined) | 1.72 | 3.24 | 1.9 | 3.43 | 2.78 | 10.2 | 2.04 | 4.17 | 1.82 | 3.44 | 1.83 | 3.42 | 2.13 | 4.98 | 2.15 | 6.27 | 2.16 | 5.23 | 3.88 | 15.4 |
| COc1cc2c(cc1Nc1nc(Nc3ccsc3C(N)=O)c3cc[nH]c3n1)N(C(=O)CN(C)C)CCC2 | 3.13 | 6.95 | < 0.0025 | 0.394 | 1.79 | 8.36 | 0.529 | 2.66 | 0.58 | 3.66 | 0.592 | 3.28 | 0.618 | 2.13 | 2.98 | 9.03 | 1.17 | > 23.6 | 3.35 | 7.39 |
| CC(C)(O)C1CC(=O)C(C)(C2C(O)CC3(C)C4CC=C5C(CCC(O)C5(C)C)C4(C)C(=O)CC23C)O1 (centres undefined) |  | > 100 |  | > 100 |  | > 100 |  | > 100 |  | > 100 |  | > 100 |  | > 100 |  | > 100 |  | > 100 |  | > 100 |
| C#Cc1cccc(NC(=O)Nc2cccc(NC(=O)CCl)c2)c1 | 25 | > 82.5 | 58.7 | > 82.5 | 11.6 | 26 | 58.6 | > 82.5 | 13.2 | 27 | 23.6 | > 82.5 | 14.6 | 36.5 | 12 | 29.5 | 37.8 | > 82.5 | > 82.5 | > 82.5 |
| O=C1/C(=C/c2ccc([N+](=O)[O-])s2)Oc2ccc(Cl)cc21 | 0.887 | 3.21 | 0.527 | 1.36 | 0.311 | 0.983 | 0.24 | 0.593 | 0.239 | 0.598 | 0.512 | 1.52 | 0.229 | 0.48 | 0.406 | 0.897 | 0.216 | 0.593 | 0.152 | 0.295 |
| N#Cc1ccccc1C#C/C=C\C#Cc1cnccn1 | 21 | > 79.3 | 19.7 | > 57.5 | 38.1 | > 100 | 3.49 | > 31.5 | > 21.1 | > 60.9 | 5.78 | 13.8 | 1.22 | 18.3 | 36 | > 100 | 30.9 | > 100 | 44 | > 100 |
| O=C(/C=C/CN1CCCCC1)Nc1cc2c(Nc3ccc(F)c(Cl)c3F)ncnc2cc1OCCOC(F)F | 0.781 | 6.38 | 1.6 | 4.93 | < 0.0182 | 0.815 | 2.44 | 9.01 | 1.22 | 2.59 | 2.12 | 6.61 | 0.284 | 2.55 | 1.23 | 13 | 1.68 | 8.43 | < 0.0116 | 5.89 |
| Cc1cccc(NC(=O)c2sc3nc4c(cc3c2N)CCC4)c1C | 0.367 | 14.3 | 0.361 | 1.97 | 0.766 | 53 | 0.407 | 41 | 0.643 | > 100 | 0.236 | 2.4 | 0.308 | 1.47 | 1.33 | 22.8 | 0.369 | 15.7 | 0.615 | > 100 |
| COC(=O)[C@@H](C)C[C@H](Cc1ccccc1)NC(=O)c1cccc([C@@H](C[C@H](C(C)C)N(C)C(=O)[C@@H](NC(=O)[C@H]2CCCCN2C)C(C)C)OC(C)=O)n1 | 0.00583 | > 16.7 |  |  | < 0.00167 | > 16.7 | < 0.00167 | > 16.7 | 0.00495 | > 16.7 | < 0.00167 | 0.224 | < 0.00167 | 0.00268 | 0.00477 | > 16.7 | < 0.00167 | > 16.7 | 0.0127 | > 16.7 |
| CC(=O)OC1C(OC/C2=C/C3[C@@H](C(C)C)CC=C(C)[C@@H]3CC(OC(=O)/C=C/c3cn(C)cn3)[C@]3(C)C=C[C@@]2(O)O3)OCC(O)C1O (some centres undefined) | 0.0441 | > 50 | 0.0112 | 0.0975 | 0.0737 | > 50 | 0.0123 |  | 0.0234 | > 50 |  |  | 0.0105 | 0.0268 | 0.0586 | > 50 | 0.0271 | > 50 | 1.13 | > 50 |
